In ChEMBL document CHEMBL5518181, “Studies of antibacterial activity (in vitro and in vivo) and mode of action for des-acyl tridecaptins (DATs)” (Eur J Med Chem, 2024):
Values after ≈ are worked out from the molar mass of the structure shown.

Assays:
Klebsiella pneumoniae = experiment: Antibacterial activity against wild-type Klebsiella pneumoniae ATCC 13883 assessed as inhibition of bacterial growth incubated for 18 hrs; assay type: functional; conditions: read-out: MIC100
Escherichia coli = experiment: Antibacterial activity against wild-type Escherichia coli ATCC 25922 assessed as inhibition of bacterial growth incubated for 18 hrs; assay type: functional; conditions: read-out: MIC100
[1] = Hemolytic activity in human red blood cells at 400 ug/ml incubated for 45 mins by spectrophotometric analysis relative to control; assay type: toxicity, cell-based, Erythrocyte; conditions: red blood cells (erythrocytes), at 400 µg/mL, read-out: Activity
[2] = Cytotoxicity against human HepG2 cells incubated for 40 hrs by celltiter-glo luminescent cell viability assay; assay type: toxicity, cell-based

Compound | MIC (Klebsiella pneumoniae) | MIC (Escherichia coli) | hemolysis at 0.75 h, 400 ug/ml [1] | IC50 at 40 h [2]
CC[C@H](C)[C@@H](NC(=O)[C@@H](NC(=O)[C@H](CCC(=O)O)NC(=O)[C@H](Cc1ccccc1)NC(=O)[C@@H](CCN)NC(=O)[C@H](CCN)NC(=O)[C@H](C)NC(=O)[C@@H](Cc1c[nH]c2ccccc12)NC(=O)[C@@H](CO)NC(=O)CNC(=O)[C@@H](CCN)NC(=O)[C@H](NC(=O)[C@H](C)N)C(C)C)C(C)C)C(=O)N[C@@H](C)C(=O)O | 8 µg/mL (≈ 5.52 µM) | 4 µg/mL (≈ 2.76 µM) | 0% | > 170 µg/mL
CC[C@H](C)[C@@H](NC(=O)[C@H](CC1CCCCC1)NC(=O)[C@H](CCC(=O)O)NC(=O)[C@H](Cc1ccccc1)NC(=O)[C@@H](CCN)NC(=O)[C@H](CCN)NC(=O)[C@H](CO)NC(=O)[C@@H](Cc1c[nH]c2ccccc12)NC(=O)[C@@H](CO)NC(=O)CNC(=O)[C@@H](CCN)NC(=O)[C@H](NC(=O)[C@H](C)N)C(C)C)C(=O)N[C@@H](C)C(=O)O [listing 1 of 2 here] | – | – | 59% | 9 µg/mL (≈ 5.92 µM)
CC(C)[C@H](NC(=O)[C@H](CCC(=O)O)NC(=O)[C@H](Cc1ccccc1)NC(=O)[C@@H](CCN)NC(=O)[C@H](CCN)NC(=O)[C@H](CO)NC(=O)[C@@H](Cc1c[nH]c2ccccc12)NC(=O)[C@@H](CO)NC(=O)CNC(=O)[C@@H](CCN)NC(=O)[C@H](N)C(C)C)C(=O)N[C@H](C)C(=O)N[C@@H](C)C(=O)O | 64 µg/mL (≈ 47.3 µM) | > 64 µg/mL | 4.3% | > 170 µg/mL
CC[C@H](C)[C@@H](NC(=O)[C@@H](NC(=O)[C@H](CCC(=O)O)NC(=O)[C@H](Cc1ccccc1)NC(=O)[C@@H](CCN)NC(=O)[C@H](CCN)NC(=O)[C@H](CO)NC(=O)[C@@H](Cc1c[nH]c2ccccc12)NC(=O)[C@@H](CO)NC(=O)CNC(=O)[C@@H](CCN)NC(=O)[C@H](N)CCN)C(C)C)C(=O)N[C@@H](C)C(=O)O | > 64 µg/mL | > 64 µg/mL | 0% | > 170 µg/mL
CC[C@H](C)[C@@H](NC(=O)[C@@H](NC(=O)[C@H](CCC(=O)O)NC(=O)[C@H](Cc1ccccc1)NC(=O)[C@@H](CCN)NC(=O)[C@H](CN)NC(=O)[C@H](CO)NC(=O)[C@@H](Cc1c[nH]c2ccccc12)NC(=O)[C@@H](CO)NC(=O)CNC(=O)[C@@H](CCN)NC(=O)[C@H](N)C(C)C)C(C)C)C(=O)N[C@@H](C)C(=O)O | 32 µg/mL (≈ 23.2 µM) | 64 µg/mL (≈ 46.4 µM) | 1.5% | > 170 µg/mL
CC[C@H](C)[C@@H](NC(=O)[C@@H](NC(=O)[C@H](CCC(=O)O)NC(=O)[C@H](Cc1ccccc1)NC(=O)[C@@H](CCN)NC(=O)[C@H](CCN)NC(=O)[C@H](CO)NC(=O)[C@@H](Cc1c[nH]c2ccccc12)NC(=O)[C@@H](CO)NC(=O)CNC(=O)[C@@H](CCN)NC(=O)[C@H](NC(=O)[C@@H](N)CCN)C(C)C)C(C)C)C(=O)N[C@@H](C)C(=O)O | 64 µg/mL (≈ 42.8 µM) | 64 µg/mL (≈ 42.8 µM) | 10% | > 70 µg/mL
CC[C@H](C)[C@@H](NC(=O)[C@@H](NC(=O)[C@H](CCC(=O)O)NC(=O)[C@H](Cc1ccccc1)NC(=O)[C@@H](CCN)NC(=O)[C@H](CCN)NC(=O)[C@H](CO)NC(=O)[C@@H](Cc1c[nH]c2ccccc12)NC(=O)[C@@H](CO)NC(=O)CNC(=O)[C@@H](CCN)NC(=O)[C@H](NC(=O)CN)C(C)C)C(C)C)C(=O)N[C@@H](C)C(=O)O | 32 µg/mL (≈ 22 µM) | 32 µg/mL (≈ 22 µM) | 0% | > 70 µg/mL
CC[C@H](C)[C@@H](NC(=O)[C@@H](NC(=O)[C@H](CCC(=O)O)NC(=O)[C@H](Cc1ccccc1)NC(=O)[C@@H](CCN)NC(=O)[C@H](CCN)NC(=O)[C@H](CO)NC(=O)[C@@H](Cc1c[nH]c2ccccc12)NC(=O)[C@@H](CO)NC(=O)CNC(=O)[C@@H](CCN)NC(=O)[C@@H](C)N)C(C)C)C(=O)N[C@@H](C)C(=O)O | > 64 µg/mL | > 64 µg/mL | 6.4% | 131 µg/mL (≈ 95.9 µM)
CC[C@H](C)[C@@H](NC(=O)[C@@H](NC(=O)[C@H](CC(=O)O)NC(=O)[C@H](Cc1ccccc1)NC(=O)[C@@H](CCN)NC(=O)[C@H](CCN)NC(=O)[C@H](CO)NC(=O)[C@@H](Cc1c[nH]c2ccccc12)NC(=O)[C@@H](CO)NC(=O)CNC(=O)[C@@H](CCN)NC(=O)[C@H](N)C(C)C)C(C)C)C(=O)N[C@@H](C)C(=O)O | 64 µg/mL (≈ 46.4 µM) | 64 µg/mL (≈ 46.4 µM) | 0% | > 170 µg/mL
CC[C@H](C)[C@@H](NC(=O)[C@@H](NC(=O)[C@H](CCC(=O)O)NC(=O)[C@H](Cc1ccccc1)NC(=O)[C@@H](CCN)NC(=O)[C@H](CCN)NC(=O)[C@H](CO)NC(=O)[C@@H](Cc1c[nH]c2ccccc12)NC(=O)[C@@H](CO)NC(=O)CNC(=O)[C@@H](CCN)NC(=O)[C@H](N)CC(=O)O)C(C)C)C(=O)N[C@@H](C)C(=O)O | > 64 µg/mL | > 64 µg/mL | 0% | > 170 µg/mL
CC[C@H](C)[C@@H](NC(=O)[C@@H](NC(=O)[C@H](CCC(=O)O)NC(=O)[C@H](Cc1ccccc1)NC(=O)[C@@H](CCN)NC(=O)[C@H](CCN)NC(=O)[C@H](CO)NC(=O)[C@@H](Cc1c[nH]c2ccccc12)NC(=O)[C@@H](CO)NC(=O)CNC(=O)[C@@H](CCN)NC(=O)[C@H](NC(=O)[C@H](C)NC)C(C)C)C(C)C)C(=O)N[C@@H](C)C(=O)O | 8 µg/mL (≈ 5.41 µM) | 8 µg/mL (≈ 5.41 µM) | 5.3% | > 70 µg/mL
CC[C@H](C)[C@@H](NC(=O)[C@@H](NC(=O)[C@H](CCC(=O)O)NC(=O)[C@H](CC1CCCCC1)NC(=O)[C@@H](CCN)NC(=O)[C@H](CCN)NC(=O)[C@H](CO)NC(=O)[C@@H](Cc1c[nH]c2ccccc12)NC(=O)[C@@H](CO)NC(=O)CNC(=O)[C@@H](CCN)NC(=O)[C@H](NC(=O)[C@H](C)N)C(C)C)C(C)C)C(=O)N[C@@H](C)C(=O)O [listing 1 of 2 here] | – | – | – | 37 µg/mL (≈ 25.1 µM)
CC(C)[C@H](NC(=O)[C@H](CCC(=O)O)NC(=O)[C@H](Cc1ccccc1)NC(=O)[C@@H](CCN)NC(=O)[C@H](CCN)NC(=O)[C@H](CO)NC(=O)[C@@H](Cc1c[nH]c2ccccc12)NC(=O)[C@@H](CO)NC(=O)CNC(=O)[C@@H](CCN)NC(=O)[C@H](N)C(C)C)C(=O)N[C@@H](C(=O)N[C@@H](C)C(=O)O)C(C)(C)C | 8 µg/mL (≈ 5.74 µM) | 32 µg/mL (≈ 22.9 µM) | 14.4% | –
CC(C)C[C@@H](NC(=O)[C@@H](NC(=O)[C@H](CCC(=O)O)NC(=O)[C@H](Cc1ccccc1)NC(=O)[C@@H](CCN)NC(=O)[C@H](CCN)NC(=O)[C@H](CO)NC(=O)[C@@H](Cc1c[nH]c2ccccc12)NC(=O)[C@@H](CO)NC(=O)CNC(=O)[C@@H](CCN)NC(=O)[C@H](N)C(C)C)C(C)C)C(=O)N[C@@H](C)C(=O)O | 64 µg/mL (≈ 45.9 µM) | 64 µg/mL (≈ 45.9 µM) | 45.9% | 161 µg/mL (≈ 115 µM)
CC[C@H](C)[C@@H](NC(=O)[C@@H](NC(=O)[C@H](CCC(=O)O)NC(=O)[C@H](Cc1ccccc1)NC(=O)[C@@H](CCN)NC(=O)[C@H](CCN)NC(=O)[C@H](CO)NC(=O)[C@@H](Cc1c[nH]c2ccccc12)NC(=O)[C@@H](CO)NC(=O)CNC(=O)[C@@H](CCN)NC(=O)[C@H](N)C(C)C)C(C)C)C(=O)N[C@H](C(=O)O)C(C)(C)C | 32 µg/mL (≈ 22.3 µM) | 32 µg/mL (≈ 22.3 µM) | 12.1% | 43 µg/mL (≈ 29.9 µM)
CC(C)[C@H](NC(=O)[C@H](CCC(=O)O)NC(=O)[C@H](Cc1ccccc1)NC(=O)[C@@H](CCN)NC(=O)[C@H](CCN)NC(=O)[C@H](CO)NC(=O)[C@@H](Cc1c[nH]c2ccccc12)NC(=O)[C@@H](CO)NC(=O)CNC(=O)[C@@H](CCN)NC(=O)[C@H](NC(=O)[C@H](C)N)C(C)C)C(=O)N[C@@H](C(=O)N[C@@H](C)C(=O)O)C(C)(C)C | 1 µg/mL (≈ 0.682 µM) | 2 µg/mL (≈ 1.36 µM) | 71.2% | 23 µg/mL (≈ 15.7 µM)
CC[C@H](C)[C@@H](NC(=O)[C@H](CC1CCCCC1)NC(=O)[C@H](CCC(=O)O)NC(=O)[C@H](Cc1ccccc1)NC(=O)[C@@H](CCN)NC(=O)[C@H](CCN)NC(=O)[C@H](CO)NC(=O)[C@@H](Cc1c[nH]c2ccccc12)NC(=O)[C@@H](CO)NC(=O)CNC(=O)[C@@H](CCN)NC(=O)[C@H](NC(=O)[C@H](C)N)C(C)C)C(=O)N[C@@H](C)C(=O)O [listing 2 of 2 here] | 2 µg/mL (≈ 1.32 µM) | 2 µg/mL (≈ 1.32 µM) | – | –
CC[C@H](C)[C@@H](NC(=O)[C@@H](NC(=O)[C@H](CCC(=O)O)NC(=O)[C@H](CC1CCCCC1)NC(=O)[C@@H](CCN)NC(=O)[C@H](CCN)NC(=O)[C@H](CO)NC(=O)[C@@H](Cc1c[nH]c2ccccc12)NC(=O)[C@@H](CO)NC(=O)CNC(=O)[C@@H](CCN)NC(=O)[C@H](NC(=O)[C@H](C)N)C(C)C)C(C)C)C(=O)N[C@@H](C)C(=O)O [listing 2 of 2 here] | 2 µg/mL (≈ 1.36 µM) | 4 µg/mL (≈ 2.72 µM) | – | –
CC[C@H](C)[C@@H](NC(=O)[C@@H](NC(=O)[C@H](CO)NC(=O)[C@H](Cc1ccccc1)NC(=O)[C@@H](CCN)NC(=O)[C@H](CCN)NC(=O)[C@H](CO)NC(=O)[C@@H](Cc1c[nH]c2ccccc12)NC(=O)[C@@H](CO)NC(=O)CNC(=O)[C@@H](CCN)NC(=O)[C@H](N)C(C)C)C(C)C)C(=O)N[C@@H](C)C(=O)O [listing 1 of 2 here] | – | – | 0.4% | > 170 µg/mL
CC[C@H](C)[C@@H](NC(=O)[C@@H](NC(=O)[C@H](CO)NC(=O)[C@H](Cc1ccccc1)NC(=O)[C@@H](CCN)NC(=O)[C@H](CCN)NC(=O)[C@H](CO)NC(=O)[C@@H](Cc1c[nH]c2ccccc12)NC(=O)[C@@H](CO)NC(=O)CNC(=O)[C@@H](CCN)NC(=O)[C@H](N)C(C)C)C(C)C)C(=O)N[C@@H](C)C(=O)O [listing 2 of 2 here] | > 64 µg/mL | > 64 µg/mL | – | –
